# Reference: article PMC11145269 (Proceedings of the National Academy of Sciences of the …, 2024)
# Read-outs that look alike come from different tables or passages of the source.
# Legend:
# Assay in all cases: two-electrode voltage clamp, X. laevis oocytes
# Format in all cases: cell-based
# [1] = target: T1, NALCN WT channel complex (+UNC79, UNC80, and FAM155A) (Homo sapiens, UniProt Q8IZF0); conditions: buffer same
# T1 construct: codon-optimised human cDNAs in modified pcDNA3.1(+); four mRNAs 1:1:1:1 co-injected in Xenopus laevis oocytes; 7SX3 is the human channelosome structure used for modelling; with Protein unc-79 homolog; Protein unc-80 homolog; NALCN channel auxiliary factor 1
# [2] = target: T1, NALCN WT channel complex (+UNC79, UNC80, and FAM155A); conditions: buffer same; remark: listed apart in the source
# [3] = target: T1, NALCN WT channel complex (+UNC79, UNC80, and FAM155A); conditions: inhibition of outward and inward currents, E/Z isomer mixture, buffer same
# [4] = target: T1, NALCN WT channel complex (+UNC79, UNC80, and FAM155A)
# [5] = target: T2, NALCN WT channel complex (+UNC79, UNC80, and FAM155A) (Homo sapiens, UniProt Q8IZF0, L588A/M1145A/W311A/Y1436A)
# T2 construct: codon-optimised human cDNAs in modified pcDNA3.1(+); four mRNAs 1:1:1:1 co-injected in Xenopus laevis oocytes; 7SX3 is the human channelosome structure used for modelling; with Protein unc-79 homolog; Protein unc-80 homolog; NALCN channel auxiliary factor 1
# [6] = target: T3, NALCN WT channel complex (+UNC79, UNC80, and FAM155A) (Homo sapiens, UniProt Q8IZF0, M1145A); conditions: read-out: % inhibition at 300 μM (-100 mV)
# T3 construct: codon-optimised human cDNAs in modified pcDNA3.1(+); four mRNAs 1:1:1:1 co-injected in Xenopus laevis oocytes; 7SX3 is the human channelosome structure used for modelling; with Protein unc-79 homolog; Protein unc-80 homolog; NALCN channel auxiliary factor 1
# [7] = outward current inhibited, inward potentiated
# [8] = outward inhibited more than inward current
# [9] = read-out: % inhibition at 1 mM (-100 mV)
# [10] = read-out: % inhibition at 1 mM (+80 mV)
smiles,measurement,setting,value
CC(C)n1c(/C=C/C(O)CC(O)CC(=O)O)c(-c2ccc(F)cc2)c2ccccc21 (centres unmarked) [fluvastatin],% inhibition at 1 mM,[1]; inhibition of inward current only,"one (fluvastatin) had no effect on the outward current, but inhibited the inward current efficaciously"
CCCNCC(O)COc1ccccc1C(=O)CCc1ccccc1 (centres unmarked) [propafenone],% inhibition at 300 μM,[2]; [7],"three inhibited the outward and potentiated the inward currents (quinidine, diltiazem, and propafenone)"
O=C(O)COCCN1CCN(C(c2ccccc2)c2ccc(Cl)cc2)CC1 (centres unmarked) [cetirizine],% inhibition at 1 mM,[1]; inhibition of outward and inward currents,two (cetirizine and (E/Z)-endoxifen) inhibited both outward and inward currents
OCCOCCN1CCN(C(c2ccccc2)c2ccc(Cl)cc2)CC1 (centres unmarked) [hydroxyzine],% inhibition at 1 mM,[1]; [8],"three (hydroxyzine, promethazine, and citalopram) had a stronger inhibitory effect on the outward"
CCC(=C(c1ccc(O)cc1)c1ccc(OCCNC)cc1)c1ccccc1 (mixture of isomers) [(E/Z)-endoxifen],% inhibition at 100 μM,[3],two (cetirizine and (E/Z)-endoxifen) inhibited both outward and inward currents
"NCCOB(c1ccccc1)c1ccccc1 [2-APB, 2-aminoethoxydiphenyl borate]",inhibition at 1000 µM,[4]; [9],70.2 ± 8.2%
same,inhibition at 1000 µM,[5]; [9],32.9 ± 12.9%
COc1ccccc1CN[C@H]1C2CCN(CC2)[C@H]1C(c1ccccc1)c1ccccc1 [CP96345],% inhibition at 300 μM,[2]; inhibition of outward current,two selectively inhibited the outward (CP96345) or inward (lamotrigine) currents
COc1ccc([C@@H]2Sc3ccccc3N(CCN(C)C)C(=O)[C@@H]2OC(C)=O)cc1 [diltiazem],% inhibition at 300 μM,[2]; [7],"three inhibited the outward and potentiated the inward currents (quinidine, diltiazem, and propafenone)"
CN(C)CCCC1(c2ccc(F)cc2)OCc2cc(C#N)ccc21 (centres unmarked) [citalopram],% inhibition at 1 mM,[1]; [8],"three (hydroxyzine, promethazine, and citalopram) had a stronger inhibitory effect on the outward"
"c1ccc(B(OB(c2ccccc2)c2ccccc2)c2ccccc2)cc1 [DPBA, diphenylborinic anhydride]",inhibition at 1000 µM,[4]; [10],66.9 ± 4%
C=C[C@H]1CN2CC[C@H]1C[C@@H]2[C@@H](O)c1ccnc2ccc(OC)cc12 [quinidine],% inhibition at 300 μM,[2]; [7],"three inhibited the outward and potentiated the inward currents (quinidine, diltiazem, and propafenone)"
Nc1nnc(-c2cccc(Cl)c2Cl)c(N)n1 [lamotrigine],% inhibition at 300 μM,[2]; inhibition of inward current,two selectively inhibited the outward (CP96345) or inward (lamotrigine) currents
"CN(C)CCOC(c1ccccc1)c1ccccc1 [DPH, diphenhydramine]",inhibition at 1000 µM,[4]; [10],60.3 ± 4.3%
O=C1NC(=O)C(c2ccccc2)(c2ccccc2)N1 [phenytoin],inhibition at 300 µM,[6],31 ± 9.2%
same,inhibition at 300 µM,[5]; read-out: % inhibition at 300 μM (-100 mV),64.8 ± 6.7%
CC(CN1c2ccccc2Sc2ccccc21)N(C)C (centres unmarked) [promethazine],% inhibition at 1 mM,[1]; [8],"three (hydroxyzine, promethazine, and citalopram) had a stronger inhibitory effect on the outward"
